Data as given in article PMC3709815, “Reconstructing a Flavodoxin Oxidoreductase with Early Amino Acids” (International Journal of Molecular Sciences, 2013).

Assays:
Format in all cases: binding
[1] = target: T1, Megasphaera elsdenii flavodoxin (apoflavodoxin) (Megasphaera elsdenii, UniProt P00321, C127V/C54A/F36V/F70L/F71L/F86V/M120V/M16L/M57V/M97L/W100V/W7V/W91V/W96V/Y6V/Y89V); experiment: calculated from Kd,ox and redox potential Em, […] (anaerobic dithionite titration with redox dyes); conditions: read-out: Kd,hq
T1 construct: synthetic gene in pET28b(+) NdeI/BamHI, 6xHis tag kept, E. coli BL21(DE3); apoprotein by trichloroacetic acid
T1 sequence (P00321 other isoform, or with tags, fused parts or gaps with the stated changes): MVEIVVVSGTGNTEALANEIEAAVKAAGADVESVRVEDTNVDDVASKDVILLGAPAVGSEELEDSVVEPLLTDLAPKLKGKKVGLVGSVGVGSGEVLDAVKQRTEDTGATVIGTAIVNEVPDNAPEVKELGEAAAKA

[2] = target: T2, Megasphaera elsdenii flavodoxin (apoflavodoxin) (Megasphaera elsdenii, UniProt P00321); experiment: far-UV circular dichroism of apo- and holoflavodoxin, reconstitution with FMN; conditions: oxidized state; holoprotein reconstituted with 1.0 mM FMN, 40 mM sodium phosphate pH 7.0
T2 construct: synthetic gene in pET28b(+) NdeI/BamHI, 6xHis tag kept, E. coli BL21(DE3); apoprotein by trichloroacetic acid
T2 sequence (P00321 whole entry): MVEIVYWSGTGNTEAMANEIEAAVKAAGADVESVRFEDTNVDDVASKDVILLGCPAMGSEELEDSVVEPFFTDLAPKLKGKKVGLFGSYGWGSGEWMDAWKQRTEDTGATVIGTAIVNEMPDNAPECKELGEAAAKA

[3] = target: T1, Megasphaera elsdenii flavodoxin (apoflavodoxin); experiment: fluorescence titration of FMN with apoflavodoxin (ex […] nm, em […] nm); conditions: read-out: Kd,ox

Kd [1]	Kd [3]	SMILES	far-UV circular dichroism of apo- and holoflavodoxin, reconstitution with FMN [2]
43.6 mM	–	Cc1cc2c(cc1C)N(C[C@H](O)[C@H](O)[C@H](O)COP(=O)(O)O)c1[nH]c(=O)[nH]c(=O)c1N2 [FMNhq]	–
–	0.00292 mM	Cc1cc2nc3c(=O)[nH]c(=O)nc-3n(C[C@H](O)[C@H](O)[C@H](O)COP(=O)(O)O)c2cc1C [FMN]	conformation transition of mutant and wild-type protein induced by FMN binding is different
